Data reported in publication PMC4765732 (Journal of medicinal chemistry, 2015).

Columns and labels:
[1] = test system: HIV-1LAI; experiment: Antiviral assay in MT-2 human T-lymphocytes exposed to HIV-1LAI; type: cell-based
[2] = test system: HIV-1DRV^RP51; type: cell-based; settings: against HIV-1DRV^RP51

Row | SMILES | improvement in antiviral activity over the methyl and ethyl derivatives ([1]; antiviral IC50 versus 25f and 25i) | improvement in EC50 values over darunavir [2] [fold] | loss in antiviral activity ([1]; versus Boc-derivative 25c) [fold]
1 | COc1ccc(S(=O)(=O)N(CC(C)C)C[C@@H](O)[C@H](Cc2ccccc2)NC(=O)O[C@H]2CO[C@H]3OC[C@H](NC(C)C)[C@H]32)cc1 [Inhibitor 25j, (3R,3aS,4R,6aR)-4-(Isopropylamino)hexahydrofuro[2,3-b]furan-3-yl ((2S,3R)-3-hydroxy-4-((N-isobutyl-4-methoxyphenyl)sulfonamido)-1-phenylbutan-2-yl)carbamate] | over 60 fold | 10 | 
2 | CCN[C@H]1CO[C@@H]2OC[C@H](OC(=O)N[C@@H](Cc3ccccc3)[C@H](O)CN(CC(C)C)S(=O)(=O)c3ccc(OC)cc3)[C@@H]21 [Inhibitor 25i] |  | 10 | 
3 | COc1ccc(S(=O)(=O)N(CC(C)C)C[C@@H](O)[C@H](Cc2ccccc2)NC(=O)O[C@H]2CO[C@H]3OC[C@H](N(C)C(=O)OC(C)(C)C)[C@H]32)cc1 [Inhibitor 25e, (3R,3aS,4R,6aR)-4-((2S,3R)-3-Hydroxy-4-(N-isobutyl-4-methoxyphenylsulfonamido)-1-phenylbutan-2-ylcarbamoyloxy)hexahydrofuro[2,3-b]furan-3-yl methyl t-butyl carbamate] |  |  | ~10
